Measured values as given in patent US20050033056A1, “Hydroxylated indole derivatives and uses thereof” (priority 2001, published 2005).

Target: T1, CYP1A2 (Homo sapiens, UniProt P05177)
T1 construct: tissue Gentest Corp. (Woburn, Mass.); host or cells: pooled human liver microsomes
T1 sequence (P05177 1-516): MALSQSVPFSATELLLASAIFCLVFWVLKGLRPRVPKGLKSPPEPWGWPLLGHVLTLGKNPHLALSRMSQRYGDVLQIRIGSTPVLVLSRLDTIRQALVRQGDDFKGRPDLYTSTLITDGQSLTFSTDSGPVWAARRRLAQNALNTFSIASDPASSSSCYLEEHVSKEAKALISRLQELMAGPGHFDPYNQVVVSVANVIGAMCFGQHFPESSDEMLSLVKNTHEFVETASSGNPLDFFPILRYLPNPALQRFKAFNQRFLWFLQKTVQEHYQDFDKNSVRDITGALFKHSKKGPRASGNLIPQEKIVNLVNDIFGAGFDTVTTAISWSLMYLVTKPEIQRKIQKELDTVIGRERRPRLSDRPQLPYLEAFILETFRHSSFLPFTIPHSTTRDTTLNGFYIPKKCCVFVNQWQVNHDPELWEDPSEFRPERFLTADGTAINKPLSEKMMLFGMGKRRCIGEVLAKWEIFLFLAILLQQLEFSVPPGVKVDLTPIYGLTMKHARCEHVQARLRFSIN
Assay: CYP inhibition in HLM: R-warfarin 6-hydroxylation
Type: in vitro ADME
Conditions: 10 or 50 μM
Experimental: The incubations were carried out in test tubes (12.0×75 mm). The incubation mixtures (250 μL) contained 0.5 mg of HLM protein, 50 (CYP1A2 and CYP2E1) or 25 (CYP2C9, CYP2C19, CYP2D6 and CYP3A4) pmol of recombinant human CYPs, Compound 1 (10 or 50 μM), probe substrate (R—, S-warfarin, chlorzoxazone, S-mephenyloin, or bufuralol) at different concentrations, and 0.5 mg of NADPH in 50 mM Tris buffer containing 15 mM MgCl2 (pH 7.4). Compound 1 was added to the reaction mixture 5 minutes prior to the addition of the probe substrate. […]
The quantification was based on the calibration curves, and the quality control (QC) samples were applied to ensure the quality of the experiments. […]
1. CYP1A2/2C9/3A4-mediated warfarin 6-, 7-, 8-, and 10-hydroxylation (Zhang et al., Drug Metab. Dispos. 23:1339-1346, 1995; Rettie et al., Chem. Res. Toxicol. 5:54-59, 1992; Brian et al., Biochemistry 29:11280-11292, 1990): Hewlett Packard 1100 HPLC system (Waldbronn, Germany) comprised a binary pump, an autosampler, a column compartment unit, a photodiode array detector (PDA), and a fluorescence detector. […] The warfarin metabolites, 6-, 8-, and 10-hydroxywarfarin, were monitored by UV at 313 nm, and 7-hydroxywarfarin by fluorescence at Ex320 nm/Em380 nm. […]

Compound: CNC(=O)Cc1ccc2ccn(C3CCN(CCc4ccccc4F)CC3)c2c1 [Compound 1, N-methyl-[1-[1-(2-fluorophenethyl)piperidine-4-yl]-1H-indol-6-yl] acetamide]
- inhibitory effect on CYP1A2 activity (in words): no inhibitory effect
